# Measurements as given in patent US7670604B2, “Vimentin directed diagnostics and therapeutics for multidrug resistant neoplastic disease” (Aurelium Biopharma, Inc., priority 2002, dated 2010).
# Entries after “also recorded” stand apart in the source; their conditions may differ.
# Tests used:
# lysosomal hydrolases = conditions: cited from earlier work
# [1] = test system: antigen-positive E3 cell line; conditions: Krauer et al. 1992, read-out: IC50 (cytotoxicities); cited from earlier work
# E3 target cells = conditions: Pietersz et al. 1988; cited from earlier work
# [2] = Rowland et al. 1993; cited from earlier work
# MDA cells = assay: Induction of surface exposure of vimentin by drugs, intact cell radioimmunoassay; assay type: cell-based; conditions: 1 or 10 μM taxol, 1 or 10 μM doxorubicin, 0.1 or 1 μM mitoxanthrone, 12 to 16 hours
# [3] = test system: hematological tumor cells; assay: Vimentin vaccination of mice injected with hematological tumor cells; assay type: in vivo; conditions: mice vaccinated prior to injection of the tumor cells
compound,measurement,setting,value
COc1cccc2c1C(=O)c1c(O)c3c(c(O)c1C2=O)CC(O)(C(C)=O)CC3OC1CC(NC(=O)C(CC(C)C)NC(=O)C(C)N)C(O)C(C)O1 (stereo not drawn) [Ala-Leu-Dau derivative],time for conversion back to the free drug,lysosomal hydrolases,2 h
"O=c1[nH]c(=O)n([C@H]2C[C@H](O)[C@@H](CO)O2)cc1F [FUDR, 5-fluoro-2′-deoxyuridine]",IC50,[1],0.4 nM
"CC(=O)[C@]1(O)Cc2c(O)c3c(c(O)c2[C@@H](O[C@H]2C[C@H](N)[C@H](O)[C@H](C)O2)C1)C(=O)c1ccccc1C3=O [Ida, Idarubicin]",IC50,E3 target cells,120 nM
same,activities,[2],12 nM
COc1cccc2c1C(=O)c1c(O)c3c(c(O)c1C2=O)C[C@@](O)(C(=O)CO)C[C@@H]3O[C@H]1C[C@H](N)[C@H](O)[C@H](C)O1 [doxorubicin],induction of surface exposure of vimentin,MDA cells,slight induction
O=C1c2c(O)ccc(O)c2C(=O)c2c(NCCNCCO)ccc(NCCNCCO)c21 [mitoxanthrone],induction of surface exposure of vimentin,MDA cells,slight induction; also recorded: most significant effect
CC(=O)O[C@H]1C(=O)[C@@]2(C)[C@H]([C@H](OC(=O)c3ccccc3)[C@]3(O)C[C@H](OC(=O)[C@H](O)[C@@H](NC(=O)c4ccccc4)c4ccccc4)C(C)=C1C3(C)C)[C@]1(OC(C)=O)CO[C@@H]1C[C@@H]2O [taxol],induction of surface exposure of vimentin,MDA cells,slight induction
"vimentin: purified full length murine vimentin protein used as vaccine antigen, may be given with adjuvant",tumor size versus mice not vaccinated,[3],smaller
